In patent US20070130640A1, “Methods of modulating auxin production in plants” (priority 2005, published 2007):
Read-outs that look alike come from different tables or passages of the source.

Columns and labels:
[1] = system: Arabidopsis seedlings; experiment: Seedling growth on media supplemented with IAN (auxin phenotype); format: in vivo
Excerpt: Four nitrilases, differentially expressed during development and in response to environmental cues, catalyze hydrolysis of IAN to IAA in Arabidopsis (Bartel and Fink (1994) Proc. Natl. Acad. Sci. USA 91:6649-6653). The nitl mutant is insensitive to the auxin effects of exogenously applied IAN at the seedling stage (Normanly et al. (1997) Plant Cell 9:1781-1790). In accordance with the observed insensitivity of nit1 seedlings to IAN, NIT1 is most strongly expressed in the hypocotyl near the junction with the root in young seedlings as well as in the cotyledons. In contrast, NIT2 and NIT3 are expressed primarily in the cotyledons and NIT4 is expressed in the root tip (Bartel and Fink (1994) Proc. Natl. Acad. Sci. USA 91:6649-6653).

[2] = target: T1, NIT1 (Arabidopsis thaliana, UniProt P32961); settings: cited from earlier work
T1 sequence (P32961 1-346): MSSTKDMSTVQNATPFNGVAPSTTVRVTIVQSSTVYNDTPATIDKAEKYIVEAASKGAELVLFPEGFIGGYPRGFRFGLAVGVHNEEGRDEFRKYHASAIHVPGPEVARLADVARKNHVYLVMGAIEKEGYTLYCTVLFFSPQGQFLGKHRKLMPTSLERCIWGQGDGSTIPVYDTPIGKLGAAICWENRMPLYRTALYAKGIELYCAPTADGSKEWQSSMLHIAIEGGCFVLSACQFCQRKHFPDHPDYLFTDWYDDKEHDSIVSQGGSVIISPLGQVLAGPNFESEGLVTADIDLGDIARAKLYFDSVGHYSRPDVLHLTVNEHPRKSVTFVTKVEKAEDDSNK

[3] = target: T2, NIT2 (Arabidopsis thaliana, UniProt P32962); settings: cited from earlier work
T2 sequence (P32962 1-339): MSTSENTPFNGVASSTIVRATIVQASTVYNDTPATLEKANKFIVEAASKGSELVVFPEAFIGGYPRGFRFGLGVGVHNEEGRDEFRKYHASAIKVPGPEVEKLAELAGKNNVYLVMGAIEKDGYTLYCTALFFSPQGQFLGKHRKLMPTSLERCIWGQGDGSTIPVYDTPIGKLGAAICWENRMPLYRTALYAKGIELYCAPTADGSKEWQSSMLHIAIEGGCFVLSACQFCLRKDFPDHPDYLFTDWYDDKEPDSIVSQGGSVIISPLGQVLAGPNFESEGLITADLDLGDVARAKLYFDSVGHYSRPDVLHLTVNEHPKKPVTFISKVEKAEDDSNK

[4] = target: T3, CYP83B1 (Arabidopsis thaliana, UniProt O65782); experiment: Spectral analysis (optical difference spectroscopy) of ligand binding to heterologously expressed CYP83B1 in yeast microsomes
T3 sequence (O65782 1-499): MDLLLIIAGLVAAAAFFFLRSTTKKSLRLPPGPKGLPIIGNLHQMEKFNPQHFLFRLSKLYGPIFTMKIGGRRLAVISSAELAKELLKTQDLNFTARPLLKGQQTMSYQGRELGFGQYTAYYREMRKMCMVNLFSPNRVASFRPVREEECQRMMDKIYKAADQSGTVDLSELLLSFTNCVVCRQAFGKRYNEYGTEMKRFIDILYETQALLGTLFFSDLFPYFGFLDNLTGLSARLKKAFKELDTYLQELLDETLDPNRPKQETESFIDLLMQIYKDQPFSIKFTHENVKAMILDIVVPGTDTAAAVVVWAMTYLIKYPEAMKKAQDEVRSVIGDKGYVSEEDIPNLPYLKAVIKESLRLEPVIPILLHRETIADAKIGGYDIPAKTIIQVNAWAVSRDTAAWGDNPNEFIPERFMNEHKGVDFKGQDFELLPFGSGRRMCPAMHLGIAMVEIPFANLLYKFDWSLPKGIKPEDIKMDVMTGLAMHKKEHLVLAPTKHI
Experimental: (§1) FIG. 3. (A) Analysis of CYP83B1 by optical difference spectroscopy. […] After incubation for 10 min at 28° C., reaction mixtures were extracted with ethylacetate and analyzed by TLC. (s) substrate, (p) product.

[5] = target: T3, CYP83B1; experiment: CYP83B1 catalysis of [5-3H]indole-3-acetaldoxime metabolism (Km, Vmax, inhibition; TLC / scintillation counting)
Experimental: as §1
After incubation, reaction mixtures were stopped by adding SDS to 0.4% and were analyzed by thin layer chromatography (TLC). TLC plates were developed in chloroform/methanol/water (85:14:1) and radioactive bands visualized by autoradiography.
Reactions were stopped and extracted with ethylacetate. Aliquots of the substrate-containing ethylacetate phase and product-containing water phase were subjected to liquid scintillation counting.

[6] = system: wild type seedlings; experiment: Indole glucosinolate levels in seedlings grown on MS agar, quantified colorimetrically as SCN; format: in vivo, Arabidopsis; settings: wild type seedlings germinated on MS media with 100 μM tryptamine; two week old; n=10
Experimental: FIG. 6. Indole glucosinolate levels are affected by CYP83B1 expression. Indole glucosinolates in individual two week old seedlings grown on MS agar were quantified calorimetrically as SCN. 1) Wild type, 2) rnt1-1, 3) molecularly complemented line 3.25.11, 4) overexpression line 1.4.7, and 5) wild type grown on 100 μM tryptamine. Data are represented as the mean ±S.E, (n=10 seedlings). Except for the molecularly complemented line 3.25.11, mean indole glucosinolate values all differ from wild type seedling values at a 1% confidence value (t-test).
Tryptophan-derived indole-3-acetaldoxime is also an intermediate in the biosynthesis of indole glucosinolates.

[7] = substrate: ON=CCc1c[nH]c2ccccc12; experiment: purified protein, by the assay type; settings: other: in the presence of cysteine, 2.2 nM CYP83B1, 1 min at 28 °C, estimated, pH 7.6

Q: Which “effect on rnt1-1 seedlings (germination)” value ([1]; rnt1-1 seedlings grown on 50 μM IAN) does the source give for `N#CCc1c[nH]c2ccccc12` [IAN, indole-3-acetonitrile] here?
A: almost completely inhibiting germination

Q: And the “phenotype of wild type seedlings” value ([1]; wild type Arabidopsis seedlings on media with 50 μM IAN)?
A: phenocopy rnt1-1 seedlings

Q: What about the “Km for IAN hydrolysis” value [2] of the same molecule?
A: in the mM range

Q: What about the “Km for IAN hydrolysis” value [3] of the same molecule?
A: in the mM range

Q: Which “type of binding spectrum caused” value [4] does the source give for `ON=CCc1c[nH]c2ccccc12` [indole-3-acetaldoxime] here?
A: weak reverse type I spectrum

Q: What about the “turnover (number)” value ([5]; in the presence of cysteine, 2.2 nM CYP83B1, 1 min at 28 °C) of the same molecule?
A: 53 min⁻¹

Q: Which results are given for `NCCc1c[nH]c2ccccc12` [tryptamine]?
A: type of binding spectrum caused ([4]; yeast microsomes containing CYP83B1): typical type IIa binding spectrum; inhibition of CYP83B1 catalysis (indole-3-acetaldoxime oxidation) ([5]; 22 nM CYP83B1, 35 μM [5-3H]indole-3-acetaldoxime, 17.5 mM tryptamine, 10 min at 28 °C, TLC (FIG. 3B)): inhibitor; indole glucosinolate levels compared to wild type seedlings [6]: reduced levels

B1: CYP83B1 (Arabidopsis thaliana) (protein)
chain: T3 sequence (O65782 1-499)
Q: For B1, which Km [7] is on record?
A: 3 µM
